# According to article PMC11847541, “Liver fatty acid binding protein FABP1 transfers substrates to cytochrome P450 4A11 for catalysis” (The Journal of Biological Chemistry, 2025):
# Read-outs that look alike come from different tables or passages of the source.
# How the values were obtained:
# FABP1 [1] = target: T1, FABP1 (Homo sapiens, UniProt P07148); experiment: DAUDA displacement fluorescence titrations of DAUDA–FABP1 with fatty acids, fit in KinTek Explorer; format: binding
# T1 construct: GST (N, cleaved yes); made in house; host or cells: Escherichia coli DH5α
# T1 sequence (P07148 with tags, fused parts or gaps): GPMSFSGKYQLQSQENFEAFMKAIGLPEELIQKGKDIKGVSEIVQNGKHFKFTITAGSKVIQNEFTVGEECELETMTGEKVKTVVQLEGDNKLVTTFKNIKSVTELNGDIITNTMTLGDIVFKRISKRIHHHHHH
# Source text: The FABP–DAUDA system was used to screen saturated fatty acids (C12 to C18) for binding to FABP, and the Kd values were estimated in competition with the fluorophore (using its known Kd) with the kinetic modeling software KinTek Explorer. The general model is shown in Fig. 5A, where the substrate is competed against the fluorescent DAUDA–FABP1 complex for binding, yielding a ternary DAUDA–FABP1–substrate complex that is accompanied by an attenuation in fluorescence.
# Figure 5 Fluorescence titrations of DAUDA–FABP1 with fatty acids (“forward” titrations).A, model of all binding equilibria accounted for in the DAUDA displacement assays. In the fluorescence assays (λex = 335 nm), DAUDA (D) binds to FABP1 (F) to form a fluorescent (indicated with yellow flash) complex (FD), with which a lipid (S) is then competed against for binding. The binding of S attenuates the fluorescence (denoted with a smaller yellow flash) and forms a ternary complex (FDS). High concentrations of S may completely displace D to form FSS, a spectroscopically silent complex. Using this method, fluorescence titrations were carried out with the fatty acids (B) laurate, (C) myristate, (D) palmitate, (E) 16-hydroxypalmitate, and (F) stearate. Fluorescence at the emission maximum (482 nm) was monitored (as in Fig. 4) and normalized to the starting fluorescence (i.e., the FD complex prior to the addition of S). Each data point corresponds to one independent replicate. DAUDA, 11-dansylaminoundecanoic acid; FABP1, fatty acid binding protein.
# For the titrations with lipids, solutions of FABP1 (0.5 μM) and DAUDA (0.25 μM) were prepared such that the fluorescent species was not present in excess ([75]). A baseline was recorded with phosphate buffer, and a starting (basis) spectrum was recorded of the FABP–DAUDA complex (1 ml). The lipid solutions were gradually added to the cuvette with gentle mixing (pipetting up and down ∼7× with a pipette tip), and spectra were recorded (Fig. S12A). Control titrations were also performed the same day with solvent alone (Fig. S12B) as a normalizing factor for the lipid titrations as fluorescence attenuation was also observed to a much lesser degree as a solvent effect (Fig. S12C, D). […] The data were processed such that within the lipid titration and the solvent titration, the F482 values were normalized to the starting value (the initial FABP1–DAUDA complex with nothing added, set to 100%). The relative fluorescence of the lipid titration was then normalized to the relative fluorescence of the solvent titration to adjust for fluorescence attenuation observed in the solvent titration (presumably from altering the fluorophore environment). Thus, the data were processed according to y=(F482/F482(initial))lipid/(F482/F482(initial))solvent , and the resulting values were plotted as a function of lipid concentration (Fig. S12E). The curve was imported into KinTek Explorer ([76]) and was fit to a kinetic model (Fig. S13) to determine the Kd values (Table 1). Within the KinTek software, all fluorescent species required fluorescence scaling factors to convert signal to concentration. Scaling factors for the FABP–DAUDA complex, FABP–DAUDA–lipid complex, and DAUDA alone were 460, 92, and 8, respectively.
# Figure S12. Data processing for FABP1 titration with palmitate. Fluorescence spectrum of increasing additions of (A) palmitate (0-2 µM, added in C2H5OH) and (B) C2H5OH to a mixture of DAUDA (0.25 µM) and FABP1 (0.5 µM), performed as described in the Experimental Methods (see “Titrations of FABP1 with lipids, DAUDA”). C, fluorescence values at 482 nm (F482) from the titrations presented in parts A and B are normalized to the starting values (DAUDA-FABP1 complex, no volume added). Data are reported as a function of volume of titrant added to the cuvette (black, C2H5OH alone; red, palmitate in C2H5OH). […]
# FABP1 [2] = target: FABP1; design: method as in PMID 8940102; settings: rat protein, cited from earlier work
# FABP1 [3] = target: FABP1; design: method as in PMID 8541331; settings: bovine protein, cited from earlier work
# FABP3 = target: FABP3; design: method as in PMID 11170430; settings: human heart FABP (FABP3); cited from earlier work
# FABP1 [4] = target: T1, FABP1; settings: human FABP1, fluorescence displacement assay; read-out: Kd; cited from earlier work
# FABP1 [5] = target: T1, FABP1; design: method as in PMID 10852718; settings: ADIFAB system; cited from earlier work
# [6] = lipid binding to DAUDA-bound FABP1 (DAUDA displacement), read-out: Kd, FD + S ↔ FDS
# [7] = lipid binding to apo-FABP1, estimated via kinetic modeling, read-out: Kd, F + S ↔ FS
# [8] = lipid binding to ternary complex FDS (full displacement of DAUDA), low-affinity site, read-out: Kd, FDS + S ↔ FSS + D
# [9] = high-affinity site, read-out: Kd,1
# [10] = low-affinity site, read-out: Kd,2
structure (smiles),measurement,setting,value
"CCCCCCCCCCCCCC(=O)O [Myristate (C14), myristate]",Kd,FABP1 [1]; [6],0.86 µM
same,Kd,FABP1 [1]; [7],2.6 µM
same,Kd,FABP1 [1]; [8],43 µM
same,remaining activity at 0.01 µM,FABP1 [1]; read-out: % Fluorescence,98.3%
same,remaining activity at 0.03 µM,FABP1 [1]; read-out: % Fluorescence,99.1%
same,remaining activity at 0.06 µM,FABP1 [1]; read-out: % Fluorescence,98.2%
same,remaining activity at 0.1 µM,FABP1 [1]; read-out: % Fluorescence,97.3%
same,remaining activity at 0.3 µM,FABP1 [1]; read-out: % Fluorescence,92.9%
same,remaining activity at 0.6 µM,FABP1 [1]; read-out: % Fluorescence,81%
same,remaining activity at 1 µM,FABP1 [1]; read-out: % Fluorescence,71.9%
same,remaining activity at 3 µM,FABP1 [1]; read-out: % Fluorescence,42.2%
same,remaining activity at 6 µM,FABP1 [1]; read-out: % Fluorescence,25.9%
same,remaining activity at 10 µM,FABP1 [1]; read-out: % Fluorescence,18.2%
same,remaining activity at 30 µM,FABP1 [1]; read-out: % Fluorescence,13.1%
same,koff,"FABP1 [1]; read-out: koff, F + S ↔ FS",240 s⁻¹
same,koff,"FABP1 [1]; read-out: koff, FD + S ↔ FDS",20 s⁻¹
same,koff,"FABP1 [1]; read-out: koff, FDS + S ↔ FSS + D",980 s⁻¹
CCCCC/C=C\C/C=C\CCCCCCCC(=O)O [linoleate],Kd,FABP1 [2]; [9],~0.01 µM
same,Kd,FABP1 [2]; [10],~0.2 µM
CCCCCCCC/C=C\CCCCCCCC(=O)O [oleate],Kd,FABP1 [3]; [9],0.26 µM
same,Kd,FABP1 [3]; [10],> 5 µM
CCCCC/C=C\C/C=C\C/C=C\C/C=C\CCCC(=O)O [arachidonate],Kd,FABP3,~0.05 µM
"CCCCCCCCCCCC(=O)O [Laurate (C12), laurate]",% Fluorescence,"FABP1 [1]; lipid 1 µM, FABP1 0.5 µM, DAUDA 0.25 µM, F482 normalized",94.95%
same,% Fluorescence,"FABP1 [1]; lipid 2 µM, FABP1 0.5 µM, DAUDA 0.25 µM, F482 normalized",89.77%
same,% Fluorescence,"FABP1 [1]; lipid 3.5 µM, FABP1 0.5 µM, DAUDA 0.25 µM, F482 normalized",89.03%
same,% Fluorescence,"FABP1 [1]; lipid 5 µM, FABP1 0.5 µM, DAUDA 0.25 µM, F482 normalized",85.89%
same,% Fluorescence,"FABP1 [1]; lipid 7.5 µM, FABP1 0.5 µM, DAUDA 0.25 µM, F482 normalized",85.69%
same,% Fluorescence,"FABP1 [1]; lipid 10 µM, FABP1 0.5 µM, DAUDA 0.25 µM, F482 normalized",75.3%
same,% Fluorescence,"FABP1 [1]; lipid 20 µM, FABP1 0.5 µM, DAUDA 0.25 µM, F482 normalized",57.47%
same,% Fluorescence,"FABP1 [1]; lipid 35 µM, FABP1 0.5 µM, DAUDA 0.25 µM, F482 normalized",47.27%
same,% Fluorescence,"FABP1 [1]; lipid 50 µM, FABP1 0.5 µM, DAUDA 0.25 µM, F482 normalized",41.27%
same,% Fluorescence,"FABP1 [1]; lipid 75 µM, FABP1 0.5 µM, DAUDA 0.25 µM, F482 normalized",35.15%
same,% Fluorescence,"FABP1 [1]; lipid 100 µM, FABP1 0.5 µM, DAUDA 0.25 µM, F482 normalized",31.33%
same,% Fluorescence,"FABP1 [1]; lipid 125 µM, FABP1 0.5 µM, DAUDA 0.25 µM, F482 normalized",28.58%
same,% Fluorescence,"FABP1 [1]; lipid 150 µM, FABP1 0.5 µM, DAUDA 0.25 µM, F482 normalized",29.65%
same,% Fluorescence,"FABP1 [1]; lipid 200 µM, FABP1 0.5 µM, DAUDA 0.25 µM, F482 normalized",27.61%
same,% Fluorescence,"FABP1 [1]; lipid 300 µM, FABP1 0.5 µM, DAUDA 0.25 µM, F482 normalized",25.74%
same,% Fluorescence,"FABP1 [1]; lipid 400 µM, FABP1 0.5 µM, DAUDA 0.25 µM, F482 normalized",23.15%
same,"koff, F + S ↔ FS","FABP1 [1]; lipid (S) binding to apo-FABP1 (F), kinetic modeling, on-rate 9.0 × 10^7 M^−1 s^−1",2700 s⁻¹
same,Kd,FABP1 [1]; [6],18 µM
same,"koff, FD + S ↔ FDS","FABP1 [1]; lipid binding to DAUDA-bound FABP1 (FD), on-rate 2.3 × 10^7 M^−1 s^−1",410 s⁻¹
same,Kd,FABP1 [1]; [7],30 µM
same,Kd,FABP1 [1]; [8],> 1000 µM
"CCCCCCCCCCCCCCCCCC(=O)O [Stearate (C18), stearate]",remaining activity at 0.01 µM,"FABP1 [1]; lipid 0.01 µM, FABP1 0.5 µM, DAUDA 0.25 µM, F482 normalized, read-out: % Fluorescence",92.3%
same,remaining activity at 0.025 µM,"FABP1 [1]; lipid 0.025 µM, FABP1 0.5 µM, DAUDA 0.25 µM, F482 normalized",92.5%
same,remaining activity at 0.05 µM,"FABP1 [1]; lipid 0.05 µM, FABP1 0.5 µM, DAUDA 0.25 µM, F482 normalized",87.6%
same,remaining activity at 0.075 µM,"FABP1 [1]; lipid 0.075 µM, FABP1 0.5 µM, DAUDA 0.25 µM, F482 normalized",81.3%
same,remaining activity at 0.1 µM,"FABP1 [1]; lipid 0.1 µM, FABP1 0.5 µM, DAUDA 0.25 µM, F482 normalized, read-out: % Fluorescence",78.3%
same,remaining activity at 0.15 µM,"FABP1 [1]; lipid 0.15 µM, FABP1 0.5 µM, DAUDA 0.25 µM, F482 normalized",69.4%
same,remaining activity at 0.2 µM,"FABP1 [1]; lipid 0.2 µM, FABP1 0.5 µM, DAUDA 0.25 µM, F482 normalized",61%
same,remaining activity at 0.25 µM,"FABP1 [1]; lipid 0.25 µM, FABP1 0.5 µM, DAUDA 0.25 µM, F482 normalized",54.2%
same,remaining activity at 0.35 µM,"FABP1 [1]; lipid 0.35 µM, FABP1 0.5 µM, DAUDA 0.25 µM, F482 normalized",44.4%
same,remaining activity at 0.45 µM,"FABP1 [1]; lipid 0.45 µM, FABP1 0.5 µM, DAUDA 0.25 µM, F482 normalized",37.1%
same,remaining activity at 0.6 µM,"FABP1 [1]; lipid 0.6 µM, FABP1 0.5 µM, DAUDA 0.25 µM, F482 normalized, read-out: % Fluorescence",31.3%
same,remaining activity at 0.9 µM,"FABP1 [1]; lipid 0.9 µM, FABP1 0.5 µM, DAUDA 0.25 µM, F482 normalized",24.2%
same,remaining activity at 1.15 µM,"FABP1 [1]; lipid 1.15 µM, FABP1 0.5 µM, DAUDA 0.25 µM, F482 normalized",24.1%
same,remaining activity at 1.4 µM,"FABP1 [1]; lipid 1.4 µM, FABP1 0.5 µM, DAUDA 0.25 µM, F482 normalized",23.6%
same,remaining activity at 1.9 µM,"FABP1 [1]; lipid 1.9 µM, FABP1 0.5 µM, DAUDA 0.25 µM, F482 normalized",23.3%
same,koff,"FABP1 [1]; lipid (S) binding to apo-FABP1 (F), kinetic modeling, on-rate 9.0 × 10^7 M^−1 s^−1, read-out: koff, F + S ↔ FS",6.2 s⁻¹
same,Kd,FABP1 [1]; [6],0.021 µM
same,koff,"FABP1 [1]; lipid binding to DAUDA-bound FABP1 (FD), on-rate 2.3 × 10^7 M^−1 s^−1, read-out: koff, FD + S ↔ FDS",0.48 s⁻¹
same,Kd,FABP1 [1]; [7],0.069 µM
same,Kd,FABP1 [1]; [8],34 µM
same,koff,"FABP1 [1]; lipid binding to ternary complex FDS (full displacement of DAUDA), read-out: koff, FDS + S ↔ FSS + D",770 s⁻¹
same,Kd,FABP1 [4],0.029 ± 0.002 µM
same,Kd,FABP1 [5],0.023 µM
"O=C(O)CCC/C=C\C/C=C\C/C=C\C/C=C\CCCCCO [20-HETE, 20-hydroxyeicosatetraenoic acid]",Kd,FABP3,~0.44 µM
